Results taken from patent US20220251096A1, “7,8-DIHYDRO-4H-PYRAZOLO[4,3-c]AZEPINE-6-ONE COMPOUNDS” (Eli Lilly and Company, priority 2019, published 2022).

What was measured:
[1] = system: 22Rv1 prostate cancer cells; experiment: Cell proliferation assay in 22Rv1; format: cell-based; conditions: Homo sapiens, 22Rv1, 168 h, 22Rv1, 7 days; for inhibition at 0.37 µM: single agent at 370 nM
Description: The purpose of the following cell proliferation assay is to detect whether the compound of Example 2 and combinations thereof have an effect on cell proliferation.
22Rv1 (purchased from ATCC CRL-2505) cells are seeded at a density of 1,000 cells per well in RMPI 10% FBS (20 μL volume) into a clear bottom 384-well cell culture plate. The plate is incubated at 37° C. and 5% CO2. The cells are dosed the following day with the compound of Example 2 and the compound of Example 2 in combination with the known anti-cancer therapeutics found in the table below. An Echo 555 acoustic dispenser is used to prepare serial dilutions (1:3) of the compound of Example 2, and combinations thereof, in concentrations ranging from 60 μM to 0.003 μM. The cells are then dosed by addition of 5 μL from the serial dilution plate to the cell plate, producing a final DMSO concentration of 0.2% with a final concentration dose ranging from 20 μM to 0.001 μM for the compound of Example 2 and combinations thereof.
Media containing 0.2% DMSO is used for the maximum point and 2 μM staurosporine in the growth media containing 0.2% DMSO is used for the minimum point. After dosing with the compound of Example 2 and combinations thereof, the cell plates are incubated at 37° C. and 5% CO2. Seven days after test compound addition, plates are removed from the incubator and cold EtOH (96%, 65 μL) is added to each well. After 30 minutes, the media is removed and RNase (20 μL, 50 μg/mL) (Sigma) and a 1:1000 propidium iodide dilution in PBS are added to each well. The plates are sealed and incubated for 1 hour at room temperature and preserved from light. Plates are then scanned with ACUMEN EXPLORER™ [Laser-scanning fluorescence microplate cytometer manufactured by TTP LABTECH LTD]. The number of 22Rv1 cells is evaluated through an estimated number of cells, calculated through the area parameter (ratio of total area of the total cells population), a designated range of peak intensity of FL-3 (PI), and the mean area of the single cell population defined by perimeter. Data is then processed through an NGR screening tool. Data is analyzed using a 4-parameter nonlinear logistic equation (four-parameter logistic concentration-response curve): Y=bot+[(top−bot)/1+(x/IC50)slope] where Y=% inhibition, X=concentration yielding y % inhibition, “bot”=minimum value of y attained by curve, “top”=maximum value of y attained by curve, and “slope”=steepness of curve at IC50. % Inh=[(median Max−x/median Max−median Min)]·100.

EP300 [2] = target: T1, EP300 (Homo sapiens, UniProt Q09472); experiment: NanoBRET assay, EP300 bromodomain; format: cell-based; set-up: NanoLuc-EP300-BD (Promega, 0.0002 μg); host or cells: HEK293; conditions: NanoBRET in HEK293 cells, read after 4 hours incubation; mean ± Standard Deviation
T1 sequence (Q09472 1049-1156 limits assumed): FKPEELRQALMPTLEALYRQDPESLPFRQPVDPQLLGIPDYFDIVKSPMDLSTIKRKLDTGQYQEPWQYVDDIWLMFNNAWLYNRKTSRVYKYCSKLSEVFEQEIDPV
Description: (§1) HEK293 cells are seeded at 10×10^6 cells/16 mL in DMEM+10% FBS in a T-75 flask and left to attach for 4-6 hours. Transfection reagents are diluted in Opti-MEM media (no phenol red, no FBS) and 8% Fugene HD containing expression plasmids at a final concentration of the following: 1: Histone H3.3 HaloTag DNA (Promega, 0.02 μg)+NanoLuc-CREBBP-BD (Promega, 0.0002 μg); 2: Histone H3.3 HaloTag DNA (Promega, 0.02 μg)+NanoLuc-EP300-BD (Promega, 0.0002 μg); 3: Histone H4 HaloTag DNA (0.02 μg)+NanLuc-BRD4 Full Length (Promega, 0.0002 μg). The DNA/Fugene mixtures are left at RT for 10 minutes. Transfection mix (800 μL) is added per flask and immediately swirled to cover the cells. The plates are returned to the incubator for overnight transfection. The next day, HaloTag NanoBRET 618 ligand (20 μL/vial of 0.1 mM) is thawed at RT. […]
(§2) Compound is serially diluted and added to 96-well plates (2 10 mM, 3-fold dilutions, 100% DMSO). […] CREBBP/EP300 plates are read after 4 hours incubation and the BRD4 plates are read after overnight incubation. To develop plates for reading, allow all reagents to reach RT before use. […] The plate is shaken for 1 minute to mix and within 10 minutes, read on Envision plate reader with the following settings: Mirror: Luminescence; Emission filter: E600LP; 2nd emission filter: D460/50; Measurement height (mm): 6.5; Measurement time (s): 0.2 second.

NCI-H211 = experiment: Cell growth inhibition assay, NCI-H211; format: cell-based; conditions: Homo sapiens, 168 h; NCI-H211, 7 days
Description: (§3) Tumor cell lines are plated onto 96-well, black wall poly-D-lysine plates (Corning #354640), and incubated at 37° C., 5% CO2 for 18-24 hours. Compound was added at 1:3 dilutions in DMSO and cells were incubated at 37° C., 5% CO2 for 7 days. For adherent cell lines, cells were fixed and stained with propidium iodide and scanned on Acumen (channel 3 setting). For suspension cell lines, cell growth was monitored using Cell Titer-Glo reagent.

EOL-1 = experiment: Cell growth inhibition assay, EOL-1; format: cell-based; conditions: Homo sapiens, EOL1, 168 h; EOL-1, 7 days
Description: as §3

NCI-H1048 = experiment: Cell growth inhibition assay, NCI-H1048; format: cell-based; conditions: Homo sapiens, 168 h; NCI-H1048, 7 days
Description: as §3

hBRD4 = target: T2, hBRD4 (Homo sapiens, UniProt O60885); experiment: NanoBRET assay, BRD4 full length; format: cell-based; conditions: NanoBRET in HEK293 cells, read after overnight incubation; mean ± Standard Deviation
T2 construct: NanLuc-BRD4 Full Length (Promega, 0.0002 μg); host or cells: HEK293
Description: as §1, §2

MDA-MIB-453 = experiment: Cell growth inhibition assay, MDA-MIB-453; format: cell-based; conditions: 168 h; MDA-MIB-453, 7 days
Description: as §3

BRD4 (BD1, BD2) = target: T3, BRD4 (BD1, BD2) (Homo sapiens, UniProt O60885); experiment: BromoKdELECT platform assay, BRD4 (BD1, BD2); format: binding; conditions: 11 points dose-response, mean from a duplicate experiment
T3 construct: BRD4 (Bromodomain 1 (BD1) and Bromodomain 2 (BD2)); purchased DiscoverX (BromoKdELECT service)
Source text: (§4) The purpose of this assay is to evaluate the in vitro target engagement and selectivity (https://www.discoverx.com/services/drug-discovery-development-services/epigenetic-profiling/bromoscan-epigenetic-profiling/bromokdelect). Assay measurement is based on the amount of bromodomain captured in test and control samples by using quantitative PCR technology that detects the DNA label associated to bromodomain. Compounds that bind the bromodomain active site prevents its binding to the immobilized ligand and will reduce the amount of bromodomain captured on the solid support. […] Thus, compound activity is monitored by measuring the amount of bromodomain captured in test versus control samples by using qPCR. Binding affinity for test compound-bromodomain interactions are calculated by measuring the amount of bromodomain captured on the solid support as a function of the test compound concentration.
(§5) Binding affinity (Kd) of the compounds of Examples 1 and 2 towards CREBBP, EP300 and BRD4 (Bromodomain 1 (BD1) and Bromodomain 2 (BD2)) are determined in an 11 points dose-response study (See Table 5). Data is represented as a mean from a duplicate experiment.

CREBBP [3] = target: T4, CREBBP (Homo sapiens, UniProt Q92793); experiment: BromoKdELECT platform assay, CREBBP; format: binding; set-up: purchased DiscoverX (BromoKdELECT service); conditions: 11 points dose-response, mean from a duplicate experiment
T4 sequence (Q92793 1085-1192 limits assumed): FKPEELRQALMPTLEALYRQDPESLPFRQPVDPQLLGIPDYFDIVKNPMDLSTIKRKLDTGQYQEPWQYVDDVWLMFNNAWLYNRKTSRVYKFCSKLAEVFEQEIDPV
Source text: as §4, §5

SW780 = experiment: Cell growth inhibition assay, SW780; format: cell-based; conditions: Homo sapiens, 168 h; SW780, 7 days
Description: as §3

BRD4 (BD2) = target: T5, BRD4 (BD2) (Homo sapiens, UniProt O60885); experiment: BromoKdELECT platform assay, BRD4 (BD2); format: binding; conditions: 11 points dose-response, mean from a duplicate experiment
T5 construct: BRD4 (Bromodomain 1 (BD1) and Bromodomain 2 (BD2)); purchased DiscoverX (BromoKdELECT service)
Source text: as §4, §5

CREBBP [4] = target: T4, CREBBP; experiment: NanoBRET assay, CREBBP bromodomain; format: cell-based; set-up: NanoLuc-CREBBP-BD (Promega, 0.0002 μg); host or cells: HEK293; conditions: NanoBRET in HEK293 cells, read after 4 hours incubation; mean ± Standard Deviation
Description: as §1, §2

EP300 [5] = target: T1, EP300; experiment: BromoKdELECT platform assay, EP300; format: binding; set-up: purchased DiscoverX (BromoKdELECT service); conditions: 11 points dose-response, mean from a duplicate experiment
Source text: as §4, §5

KG-1a = experiment: Cell growth inhibition assay, KG-1a; format: cell-based; conditions: Homo sapiens, 168 h, 7 days
Description: as §3

BRD4 (BD1) = target: T6, BRD4 (BD1) (Homo sapiens, UniProt O60885); experiment: BromoKdELECT platform assay, BRD4 (BD1); format: binding; conditions: 11 points dose-response, mean from a duplicate experiment
T6 construct: BRD4 (Bromodomain 1 (BD1) and Bromodomain 2 (BD2)); purchased DiscoverX (BromoKdELECT service)
Source text: as §4, §5

CC(O)c1cc(C(=O)N[C@@H](C)Cn2ccc(-c3ccc(C#N)c(Cl)c3)n2)[nH]n1 (stereo partly shown) [Darolutamide, darolutamide, reference compound]
inhibition at 0.74 µM ([1]; single agent at 740 nM): 6.69%
inhibition at 2.2 µM ([1]; single agent at 2.2 μM): 6.18%

CNC(=O)c1ccc(-c2cc3cccc(-c4nn(C)c5c4CN(C)C(=O)CC5)c3cn2)cn1 [Example 1, 5-[8-(1,5-Dimethyl-6-oxo-7,8-dihydro-4H-pyrazolo[4,3-c]azepin-3-yl)-3-isoquinolyl]-N-methyl-pyridine-2-carboxamide]
IC50 (EP300 [2]): 15.1 ± 2.75 nM
IC50 (NCI-H211): 36 nM
IC50 (EOL-1): 0.8 nM
IC50 (NCI-H1048): 10 nM
IC50 (hBRD4): 5570 ± 4100 nM
IC50 (MDA-MIB-453): 28 nM
Kd (BRD4 (BD1, BD2)): 4400 nM
Kd (CREBBP [3]): 1.1 nM
IC50 (SW780): 1 nM
Kd (BRD4 (BD2)): 6700 nM
IC50 (CREBBP [4]): 16 ± 6.64 nM
Kd (EP300 [5]): 0.16 nM
IC50 (KG-1a): 37 nM
Kd (BRD4 (BD1)): 2000 nM

Cc1nc(NC(=O)N2CCC[C@H]2C(N)=O)sc1-c1ccnc(C(C)(C)C(F)(F)F)c1 [Alpelisib, alpelisib, reference compound]
inhibition at 0.12 µM ([1]; single agent at 120 nM): 33.1%
inhibition at 0.37 µM [1]: 45.3%

CCN1CCN(Cc2ccc(Nc3ncc(F)c(-c4cc(F)c5nc(C)n(C(C)C)c5c4)n3)nc2)CC1 [Abemaciclib, abemaciclib, reference compound]
inhibition at 0.012 µM ([1]; single agent at 12 nM): 34.3%
inhibition at 0.037 µM ([1]; single agent at 37 nM): 62.4%

CNC(=O)c1ccc(N2C(=S)N(c3ccc(C#N)c(C(F)(F)F)c3)C(=O)C2(C)C)cc1F [Enzalutamide, enzalutamide, reference compound]
inhibition at 0.37 µM [1]: -0.12%
inhibition at 3.3 µM ([1]; single agent at 3.3 μM): 0.41%
